# Results taken from publication PMC6979384, “Characterization of the plant homeodomain (PHD) reader family for their histone tail interactions” (Epigenetics & Chromatin, 2020).
# Assays:
# Experiment in all cases: Histone peptide microarray
# Format in all cases: binding, human
# [1] = test system: BPTF (PB); conditions: BPTF (PB)
# Method in brief: (§1)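 Readout is array binding signal, reported as the mean and standard deviation over four replicates. Each purified GST-fused PHD domain was incubated at 0.5 μM with a library of 293 modified histone peptides.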
# [2] = test system: ING5
# Method in brief: as §1
# [3] = test system: PHF23
# Method in brief: as §1
# [4] = test system: ING2
# Method in brief: as §1
# [5] = test system: KDM5A (1); conditions: KDM5A (1)
# Method in brief: as §1
# [6] = test system: PHF21A; conditions: PHF21A
# Method in brief: as §1
# [7] = test system: KDM4C (TTP); conditions: KDM4C (TTP)
# Method in brief: as §1
# [8] = test system: PHRF1 (RP); conditions: PHRF1 (RP)
# Method in brief: as §1
# [9] = test system: AIRE (PP); conditions: AIRE (PP)
# Method in brief: as §1
# [10] = test system: KDM5B (3); conditions: KDM5B (3)
# Method in brief: as §1
# [11] = test system: MLL5
# Method in brief: as §1
# [12] = test system: ING1
# Method in brief: as §1
# [13] = test system: ING3
# Method in brief: as §1
# [14] = test system: KDM7A; conditions: KDM7A
# Method in brief: as §1
# [15] = test system: TRIM66 (PB); conditions: TRIM66 (PB)
# Method in brief: as §1
# [16] = test system: PHF8
# Method in brief: as §1
# [17] = test system: KDM5B (1); conditions: KDM5B (1)
# Method in brief: as §1
# [18] = test system: DIDO1
# Method in brief: as §1
# [19] = test system: CHD5 (PPCC); conditions: CHD5 (PPCC)
# Method in brief: as §1
# [20] = test system: CHD5 (PCC); conditions: CHD5 (PCC)
# Method in brief: as §1
# [21] = test system: PHF2
# Method in brief: as §1
# [22] = test system: BAZ2B; conditions: BAZ2B
# Method in brief: as §1
# [23] = test system: RAG2
# Method in brief: as §1
# [24] = test system: PHF13
# Method in brief: as §1
# [25] = test system: ING4
# Method in brief: as §1
# [26] = test system: TAF3
# Method in brief: as §1
# [27] = test system: MORC3 (CW); conditions: MORC3 (CW)
# Method in brief: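 GST-PHD reader, 0.5 μM, probed on 293-peptide histone array (single/combinatorial PTMs); optimized array protocol; signal = mean ± SD, n = 4.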
# [28] = test system: SP140L; conditions: SP140L
# Method in brief: as §1
# [29] = test system: DPF2 (PPC2W2); conditions: DPF2 (PPC2W2)
# Method in brief: as §1
# [30] = test system: CHD4 (PPCC); conditions: CHD4 (PPCC)
# Method in brief: as §1
# [31] = test system: KDM5A (3); conditions: KDM5A (3)
# Method in brief: as §1
# [32] = GST-tagged, arrays performed twice, n of 4
# [33] = sheet "Array Heatmap", each array performed twice, total n = 4
substance,measurement,setting,value
H4K5ac + K8ac: H4 1-23,Array Heatmap value (peptide array binding signal),[1]; [32],0.3517
same,Array Heatmap value (peptide array binding signal),"[2]; ING5, GST-tagged, arrays performed twice, n of 4",0.3695
same,Array Heatmap value (peptide array binding signal),"[3]; PHF23, GST-tagged, arrays performed twice, n of 4",0.5198
same,Array Heatmap value (peptide array binding signal),"[4]; ING2, GST-tagged, arrays performed twice, n of 4",0.5873
same,Array Heatmap value (peptide array binding signal),[5]; [32],0.4957
same,Array Heatmap value (peptide array binding signal),[6]; [32],0.4994
same,Array Heatmap value (peptide array binding signal),[7]; [32],0.5523
same,Array Heatmap value (peptide array binding signal),[8]; [32],0.424
same,Array Heatmap value (peptide array binding signal),[9]; [32],0.5662
same,Array Heatmap value (peptide array binding signal),[10]; [32],0.5165
same,Array Heatmap value (peptide array binding signal),"[11]; MLL5, GST-tagged, arrays performed twice, n of 4",0.528
same,Array Heatmap value (peptide array binding signal),"[12]; ING1, GST-tagged, arrays performed twice, n of 4",0.5183
same,Array Heatmap value (peptide array binding signal),"[13]; ING3, GST-tagged, arrays performed twice, n of 4",0.4856
same,Array Heatmap value (peptide array binding signal),[14]; [32],0.4235
same,Array Heatmap value (peptide array binding signal),[15]; [32],0.5724
same,Array Heatmap value (peptide array binding signal),"[16]; PHF8, GST-tagged, arrays performed twice, n of 4",0.3992
same,Array Heatmap value (peptide array binding signal),[17]; [32],0.6318
same,Array Heatmap value (peptide array binding signal),"[18]; DIDO1, GST-tagged, arrays performed twice, n of 4",0.6312
same,Array Heatmap value (peptide array binding signal),[19]; [32],0.5854
same,Array Heatmap value (peptide array binding signal),[20]; [32],0.8034
same,Array Heatmap value (peptide array binding signal),"[21]; PHF2, GST-tagged, arrays performed twice, n of 4",0.4759
same,Array Heatmap value (peptide array binding signal),[22]; [32],0.4714
same,Array Heatmap value (peptide array binding signal),"[23]; RAG2, GST-tagged, arrays performed twice, n of 4",0.2557
same,Array Heatmap value (peptide array binding signal),"[24]; PHF13, GST-tagged, arrays performed twice, n of 4",0.6182
same,Array Heatmap value (peptide array binding signal),"[25]; ING4, GST-tagged, arrays performed twice, n of 4",0.4756
same,Array Heatmap value (peptide array binding signal),"[26]; TAF3, GST-tagged, arrays performed twice, n of 4",0.2841
same,Array Heatmap value (peptide array binding signal),[27]; [32],0.3673
same,Array Heatmap value (peptide array binding signal),[28]; [32],0.3819
same,Array Heatmap value (peptide array binding signal),[29]; [32],0.6807
same,Array Heatmap value (peptide array binding signal),[30]; [32],0.551
same,Array Heatmap value (peptide array binding signal),[31]; [32],0.4472
H4K5ac + K8me1 + K12ac + K16ac: H4 1-23,Array Heatmap value (peptide array signal),[1]; [33],0.382
same,Array Heatmap value (peptide array signal),"[2]; ING5, sheet ""Array Heatmap"", each array performed twice, total n = 4",0.3988
same,Array Heatmap value (peptide array signal),"[3]; PHF23, sheet ""Array Heatmap"", each array performed twice, total n = 4",0.5588
same,Array Heatmap value (peptide array signal),"[4]; ING2, sheet ""Array Heatmap"", each array performed twice, total n = 4",0.602
same,Array Heatmap value (peptide array signal),[5]; [33],0.5072
same,Array Heatmap value (peptide array signal),[6]; [33],0.4984
same,Array Heatmap value (peptide array signal),[7]; [33],0.5456
same,Array Heatmap value (peptide array signal),[8]; [33],0.4565
same,Array Heatmap value (peptide array signal),[9]; [33],0.5672
same,Array Heatmap value (peptide array signal),[10]; [33],0.4848
same,Array Heatmap value (peptide array signal),"[11]; MLL5, sheet ""Array Heatmap"", each array performed twice, total n = 4",0.5641
same,Array Heatmap value (peptide array signal),"[12]; ING1, sheet ""Array Heatmap"", each array performed twice, total n = 4",0.5458
same,Array Heatmap value (peptide array signal),"[13]; ING3, sheet ""Array Heatmap"", each array performed twice, total n = 4",0.4952
same,Array Heatmap value (peptide array signal),[14]; [33],0.4269
same,Array Heatmap value (peptide array signal),[15]; [33],0.6845
same,Array Heatmap value (peptide array signal),"[16]; PHF8, sheet ""Array Heatmap"", each array performed twice, total n = 4",0.4058
same,Array Heatmap value (peptide array signal),[17]; [33],0.7009
same,Array Heatmap value (peptide array signal),"[18]; DIDO1, sheet ""Array Heatmap"", each array performed twice, total n = 4",0.7292
same,Array Heatmap value (peptide array signal),[19]; [33],0.5973
same,Array Heatmap value (peptide array signal),[20]; [33],0.8607
same,Array Heatmap value (peptide array signal),"[21]; PHF2, sheet ""Array Heatmap"", each array performed twice, total n = 4",0.5076
same,Array Heatmap value (peptide array signal),[22]; [33],0.5032
same,Array Heatmap value (peptide array signal),"[23]; RAG2, sheet ""Array Heatmap"", each array performed twice, total n = 4",0.2535
same,Array Heatmap value (peptide array signal),"[24]; PHF13, sheet ""Array Heatmap"", each array performed twice, total n = 4",0.643
same,Array Heatmap value (peptide array signal),"[25]; ING4, sheet ""Array Heatmap"", each array performed twice, total n = 4",0.5013
same,Array Heatmap value (peptide array signal),"[26]; TAF3, sheet ""Array Heatmap"", each array performed twice, total n = 4",0.2847
same,Array Heatmap value (peptide array signal),[27]; [33],0.4169
same,Array Heatmap value (peptide array signal),[28]; [33],0.3759
same,Array Heatmap value (peptide array signal),[29]; [33],0.6672
same,Array Heatmap value (peptide array signal),[30]; [33],0.5762
same,Array Heatmap value (peptide array signal),[31]; [33],0.4998
